Reference: US20090220462A1, “STEM CELLS” (Duke University, priority 2005, published 2009)
Several values for one entry are separate records, joined by “and”; a condition that tells them apart may be missing. Identical values can stand only once.

Key:
CB CD34+CD38−lin− cells = assay: 7 day culture of CB CD34+CD38−lin− cells with TSF with and without ATRA (immunophenotype, CFC, morphology); format: cell-based, human
Protocol: (§1) Primary human BM and CB CD34^+CD38^−lin^− cells were placed in culture with 20 ng/mL thrombopoietin, 100 ng/mL SCF, and flt-3 ligand (TSF), a cytokine combination previously found to induce human stem and progenitor cell proliferation and differentiation in vitro (Chute et al, Blood 105:576-583 (2005), Chute et al, Stem ells 22:202-215 (2004)). In order to assess whether inhibition of ALDH activity could block the differentiation of human HSCs induced to proliferate by TSF, 1-2×10^4 BM or CB CD34^+CD38^−lin^− cells were cultured×7 days with IMDM, 10% FBS and 1% pcn/strp supplemented with TSF with and without 100 μM DEAB. At day 7, the progeny of all cultures were collected, washed×2 and cell counts were performed. A minimum of n=5 experiments was performed per culture condition to allow statistical comparisons to be performed. Immunophenotypic analysis was performed on progeny cells using anti-human CD34 and CD38 mAbs (Becton Dickinson) and isotype control IgG mAbs and compared with day 0 (input) staining. Fourteen day methylcellulose CFC assays (colony forming unit-granulocyte monocyte, CFU-GM, burst forming unit-erythroid, BFU-E, and colony forming unit-mix, CFU-Mix) were performed as we have previously described (Chute et al, Blood 100:4433-4439 (2002), Chute et al, Blood 105:576-583 (2005), Chute et al, Stem ells 22:202-215 (2004)) to compare the number of lineage committed CFCs within day 0 CD34^+CD38^−lin^− cells and their progeny. Morphologic analysis of day 0 CD34^+CD38^−lin^− cells and their progeny following 7 day culture was performed using Wrights-Geimsa staining and microscopic analysis under oil immersion (100×).
In order to assess the hematopoietic effects of retinoid agonists on purified human HSCs, BM and CB CD34^+CD38^−lin^− cells were placed in culture with TSF with and without 1 μM all-trans retinoic acid (ATRA), an agonist of RAR. Total cell expansion, immunophenotype, CFC content and morphologic analysis was performed on ATRA-treated progeny and compared with both day 0 CD34^+CD38^−lin^− populations and the progeny of TSF alone to assess the impact of retinoid agonism on the differentiation of human HSCs.

[1] = system: BM and CB CD34+CD38−lin− cells; assay: 7 day culture of BM and CB CD34+CD38−lin− cells with TSF with and without DEAB (cell counts, immunophenotype, morphology); format: cell-based, human
Protocol: as §1

BM CD34+CD38−lin− cells = assay: Fourteen day methylcellulose CFC assay of culture progeny; format: cell-based, human; settings: DEAB+TSF 7 days (TSF alone 5-fold increase vs input)
Protocol: (§2) Primary human BM and CB CD34^+CD38^−lin^− cells were placed in culture with 20 ng/mL thrombopoietin, 100 ng/mL SCF, and flt-3 ligand (TSF), a cytokine combination previously found to induce human stem and progenitor cell proliferation and differentiation in vitro (Chute et al, Blood 105:576-583 (2005), Chute et al, Stem ells 22:202-215 (2004)). In order to assess whether inhibition of ALDH activity could block the differentiation of human HSCs induced to proliferate by TSF, 1-2×10^4 BM or CB CD34^+CD38^−lin^− cells were cultured×7 days with IMDM, 10% FBS and 1% pcn/strp supplemented with TSF with and without 100 μM DEAB. At day 7, the progeny of all cultures were collected, washed×2 and cell counts were performed. A minimum of n=5 experiments was performed per culture condition to allow statistical comparisons to be performed. Immunophenotypic analysis was performed on progeny cells using anti-human CD34 and CD38 mAbs (Becton Dickinson) and isotype control IgG mAbs and compared with day 0 (input) staining. […]

[2] = system: CB CD34+CD38−lin− cells (SRCs); assay: Long-term repopulating assay in NOD/SCID mice, CB cells (limiting dilution, SRC frequency); format: in vivo, human
Protocol: (§3) NOD/SCID mice (Schulz et al, J. Immunol. 154:180-191 (1995)) were transplanted with either day 0 FACS-sorted BM or CB CD34^+CD38^−lin− HSC-enriched cells or the progeny of CD34^+CD38^−lin− cells cultured with TSF alone or TSF supplemented with 100 μM DEAB. Cells were transplanted via tail vein injection after irradiating NOD/SCID mice with 300 cGy using an X-ray irradiator as previously described (Chute et al, Blood 100:4433-4439 (2002), Chute et al, Blood 105:576-583 (2005)). Day 0 CD34^+CD38^−lin− HSCs and their progeny were co-transplanted with 2×10^4 […] to facilitate engraftment as previously described (Bonnet et al, Bone Marrow Transpl. 23:203-209 (1999), Bhatia et al, Proc. Natl. Acad. Sci. USA 94:5320-5325 (1997)).
(§4) All mice in each group were sacrificed at week 8 and marrow samples were obtained by flushing their femurs with IMDM at 4° C. Red cells were lysed using red cell lysis buffer (Sigma-Aldrich) and flow cytometric analysis of human hematopoietic engraftment was performed as previously described using commercially available mAbs against human leukocyte differentiation antigens to identify engrafted human leukocytes and discriminate their hematopoietic lineages (Chute et al, Blood 100:4433-4439 (2002), Chute et al, Blood 105:576-583 (2005), Trischmann et al, J. Hematother. 2:305-313 (1993)).
(§5) Comparisons of data from in vitro experiments were made using the Student's t test. For purposes of the limiting dilution analysis, a transplanted mouse was scored as positively engrafted if ≧0.1% of the marrow cells expressed human-CD45 via high resolution FACS analysis. This criteria is consistent with previously published criteria for human cell repopulation in NOD/SCID mice (Chute et al, Blood 100:4433-4439 (2002), Dorrell et al, Blood 95:102-110 (2000)). SRC frequency in each cell source was calculated using the maximum likelihood estimator as described previously by Taswell (J. Immunol. 126:1614-1619 (1981), Wang et al, Blood 89:3919-3924 (1997), Ueda et al, J. Clin. Invest. 105:1013-1021 (2000)). Confidence intervals for the frequencies were calculated using the profile likelihood method, and the likelihood ratio test was used to confirm the fit of the model.

[3] = system: BM CD34+CD38−lin− cells (SRCs); assay: Long-term repopulating assay in NOD/SCID mice, BM cells (SRC frequency); format: in vivo, human
Protocol: as §3, §4, §5

Notch = assay: Quantitative real-time PCR of Notch in cultured CB CD34+CD38−lin− cells; format: cell-based, human; settings: DEAB+TSF
Protocol: (§6) Extraction of total RNA from Day 0 and Day 7 CB CD34^+ populations was done using a RNeasy Mini spin column (Qiagen, Valencia, Calif.) according to the manufacturer's recommended protocol. […] Briefly, total RNA was isolated from CD34^+CD38^−lin^− cells according to the manufacturer's instructions for the RNaqueous®-Micro (Ambion) and reversed-transcribed to cDNA using iScript™ cDNA synthesis Kit (Biorad, Hercules, Calif.). cDNA concentrations were measured with a fluorometer (Turner Designs, Sunnyvale, Calif.) using RiboGreen reagent (Invitrogen). PCR amplification reactions were performed in 13 μl and contained equal amounts of cDNAs, 6.5 μl of iQ SYBR green supermix (Bio-Rad), 0.2 μM of each forward and reverse gene-specific primers for genes of interest and the normalization gene 36B4. PCR was performed on an iCycler (Bio-Rad) according to the following cycling conditions: an initial cycle of 15 min at 95° C.; 45 cycles of 45 sec at 95° C., 15 sec at 55° C., and 15 sec at 72° C.; followed by a melt-curve analysis cycle with steps of 10 sec each at 0.5° C. increments from 60 to 95° C. Amplification rates were visualized and analyzed on ICYCLER IQ optical system software version 3.0 (Bio-Rad). Gene-specific primers were purchased from Integrated DNA Technologies (Coralville, Iowa).

HOXB4 = assay: Quantitative real-time PCR of HOXB4 in cultured CB CD34+CD38−lin− cells; format: cell-based, human; settings: DEAB added to TSF (TSF alone 5-fold decrease vs day 0)
Protocol: as §6

ALDH = ALDH activity by ALDEFLUOR staining of cultured CD34+CD38− cells; format: cell-based, human; settings: 100 μM DEAB+TSF, 7 days, compared to day 0 or TSF alone, P=0.001
Protocol: as §2

[4] = progeny of DEAB+TSF cultures, cell dose 0.5-1×10^3, 8 weeks

**Q.** For CC1=C(/C=C/C(C)=C/C=C/C(C)=C/C(=O)O)C(C)(C)CCC1 [ATRA, all-trans retinoic acid], which “HSC differentiation in presence of DEAB” value (CB CD34+CD38−lin− cells; 1 μM ATRA+100 μM DEAB+TSF) is on record?
**A.** The value was “HSC differentiation occurred”.

**Q.** What about the “number of CFCs compared to TSF alone” value (CB CD34+CD38−lin− cells; ATRA+TSF treated cultures) of the same compound?
**A.** Its value is “decreased”.

**Q.** What about the “differentiation and maturation of human HSCs” value (CB CD34+CD38−lin− cells; ATRA, by day 7) of the same compound?
**A.** Its value is “induced pronounced differentiation and myeloid maturation”.

**Q.** And the “CD34+CD38− cells remaining in culture” value (CB CD34+CD38−lin− cells; TSF+1 μM ATRA, day 7)?
**A.** Its value is “no CD34^+CD38^− cells remained”.

**Q.** What about the “percentage of CD34+ cells relative to TSF alone” value (CB CD34+CD38−lin− cells; TSF+1 μM ATRA, day 7) of the same compound?
**A.** The value was “declined”.

**Q.** What does the source list for CCN(CC)c1ccc(C=O)cc1 [DEAB]?
**A.** absolute numbers of CD34+CD38− cells compared to day 0 ([1]; 100 μM DEAB+TSF, 7 days (TSF alone 5-fold decrease)): maintenance; mean total cell expansion ([1]; 100 μM DEAB+TSF, 7 days (TSF alone 15-fold)): 4 fold; percentages of primitive CD34+CD38− cells in progeny ([1]; BM and CB cells, DEAB+TSF 7 days, compared to TSF alone, P=0.01 and P=0.02): significantly higher; morphologic examination of progeny ([1]; DEAB+TSF cultures, Wrights-Giemsa staining, data not shown): predominance of cells with high nuclear:cytoplasmic ratios and prominent nucleoli; CFC content of progeny (BM CD34+CD38−lin− cells): little CFC content; fold increase in SRC frequency ([2]; DEAB+TSF versus day 0 cells or TSF alone): 2 fold; multilineage differentiation in transplanted mice ([2]; mice transplanted with DEAB+TSF cultured cells, flow cytometry of BM): extensive CD34^+ progenitor cell, CD19^+ B lymphoid and CD 33/13^+ myeloid differentiation; fold higher levels of huCD45+ cell engraftment [2, 4]: 4 fold; mean huCD45+ cell engraftment [2, 4]: 0.9%; mice showing huCD45+ cell repopulation at 8 weeks ([2]; progeny of DEAB+TSF cultures, cell dose 0.5-1×10^3, 9 of 17 mice (day 0 31%, TSF 18%)): 53%; higher levels of huCD45+ cell engraftment versus day 0 or TSF ([2]; progeny of DEAB+TSF cultures, cell dose 2.5×10^3): 1 log; mean huCD45+ cell engraftment ([2]; progeny of DEAB+TSF cultures, cell dose 2.5×10^3, 8 weeks (day 0 0.9%, TSF 0.7%)): 8.0%; huCD45+ cell repopulation ([3]; cell dose 1-2.5×10^3, TSF+DEAB progeny): no huCD45^+ cell repopulation was detected; transplanted mice with human repopulation (FIG. 4 legend) ([3]; progeny of 5×10^3 cells after DEAB+TSF culture): 50-80%; mean huCD45+ cell engraftment ([3]; progeny of DEAB+TSF cultures, cell dose 5×10^3): 0.1%; mice showing huCD45+ cell engraftment ([3]; progeny of DEAB+TSF cultures, cell dose 5×10^3, 3 of 6 mice (day 0 and TSF 0 of 5)): 50%; Notch transcription compared to TSF alone (Notch): did not alter; HOXB4 expression relative to input levels (HOXB4): 80% and 70%; ALDH activity in CD34+CD38− cells (ALDH): significantly reduced
